Results reported in US12595239B2, “Substituted isoxazoline derivatives” (BASF SE, priority 2021, dated 2026).

What was measured:
Type in all cases: in vivo
Anthonomus grandis = experiment: B.1 Boll weevil (Anthonomus grandis), 96-well microtiter plate diet test; settings: 120 h, egg and larval mortality, 5 days, read-out: mortality in comparison with untreated controls
Method: For evaluating control of boll weevil, the test unit consisted of 96-well-microtiter plates containing an insect diet and 5-10 A. grandis eggs.
The compounds were formulated using a solution containing 75% v/v water and 25% v/v DMSO. Different concentrations of formulated compounds were sprayed onto the insect diet at 5 μl, using a custom-built micro atomizer, at two replications.
After application, microtiter plates were incubated at about 25±1° C. and about 75±5% relative humidity for 5 days. Egg and larval mortality were then visually assessed.

Myzus persicae = experiment: B.3 Green Peach Aphid (mixed life stages), systemic artificial diet test; settings: 72 h, treated aphid diet, 3 days, read-out: mortality in comparison with untreated controls
Text: For evaluating control of Green Peach Aphid through systemic means the test unit consisted of 96-well-microtiter plates containing liquid artificial diet under an artificial membrane. The compounds were formulated using a solution containing 75% v/v water and 25% v/v DMSO. Different concentrations of formulated compounds were pipetted into the aphid diet, using a custom-built pipette, at two replications. After application, 5-8 adult aphids were placed on the artificial membrane inside the microtiter plate wells. The aphids were then allowed to suck on the treated aphid diet and incubated at about 23±1° C. and about 50±5% relative humidity for 3 days. Aphid mortality and fecundity was then visually assessed.

Nezara viridula = experiment: B.8 Green Soldier Stink Bug, soybean pod spray test; settings: 120 h, late 3rd instar, after 5 days, read-out: mortality in comparison with untreated controls
Method: The active compound was dissolved at the desired concentration in a mixture of 1:1 (vol:vol) distilled water:aceteone. Surfactant (Kinetic) was added at a rate of 0.01% (vol/vol). The test solution was prepared at the day of use. Soybean pods were placed in 90×50 mm glass Petri dishes lined with moistened filter paper and inoculated with ten late 3rd instar N. viridula. Using a hand atomizer, an approximately 2 ml solution was sprayed into each Petri dish. Treated setup was kept at about 25-26° C. and relative humidity of about 65-70%. Percent mortality was recorded after 5 days.

Dichromothrips corbetti = experiment: B.7 Orchid Thrips, floral-immersion test; settings: adult thrips, 72 hours after treatment, read-out: mortality in comparison with untreated controls
Method: Dichromothrips corbetti adults used for bioassay were obtained from a colony maintained continuously under laboratory conditions. For testing purposes, the test compound was diluted in a 1:1 mixture of acetone:water (vol:vol), plus Kinetic at a rate of 0.01% v/v.
Thrips potency of each compound was evaluated by using a floral-immersion technique. Each orchid petal was dipped into treatment solution and allowed to dry in Petri dishes. Treated petals were placed into individual re-sealable plastic along with about 20 adult thrips. All test arenas were held under dark condition and a temperature of about 28° C. for duration of the assay. The percent mortality was recorded 72 hours after treatment.

Plutella xylostella = experiment: B.6 Diamond Back Moth, cabbage leaf disc dip test; settings: foliar, 3rd instar larvae, 72 hours after treatment, read-out: mortality in comparison with untreated controls
Method: The active compound was dissolved at the desired concentration in a mixture of 1:1 (vol:vol) distilled water:acetone. Surfactant (Kinetic) was added at a rate of 0.01% (vol/vol). The test solution was prepared at the day of use. Cabbage leaf discs (60 mm in diameter) were dipped in test solution and air-dried. Treated leaves were placed in petri dishes lined with moistened filter paper and inoculated with ten 3rd instar larvae. Mortality was recorded 72 hours after treatment. Feeding damages were also recorded using a scale of 0-100%.

Aedes aegypti = experiment: whole plant or invertebrate; settings: 48 h, larval mortality, 2 days, read-out: mortality in comparison with untreated controls
Method: For evaluating control of Yellow Fever Mosquito, the test unit consisted of 96-well-microtiter plates containing 200 μl of tap water per well and 5-15 freshly hatched A. aegypti larvae. The active compounds were formulated using a solution containing 75% (v/v) water and 25% (v/v) DMSO. Different concentrations of formulated compounds or mixtures were sprayed onto the insect diet at 2.5 μl, using a custom-built micro atomizer, at two replications.
After application, microtiter plates were incubated at 28±1° C., 80±5% RH for 2 days. Larval mortality was then visually assessed.

Heliothis virescens = experiment: B.4 Tobacco Budworm, microtiter plate diet test; settings: 120 h, egg and larval mortality, 5 days, read-out: mortality in comparison with untreated controls
Method: For evaluating control of Tobacco Budworm, the test unit consisted of 96-well-microtiter plates containing an insect diet and 15-25 H. virescens eggs. The compounds were formulated using a solution containing 75% v/v water and 25% v/v DMSO. Different concentrations of formulated compounds were sprayed onto the insect diet at 10 μl, using a custom-built micro atomizer, at two replications. After application, microtiter plates were incubated at about 28±1° C. and about 80±5% relative humidity for 5 days. Egg and larval mortality was then visually assessed.

Nephotettix virescens = experiment: B.9 Rice Green Leafhopper, rice seedling spray test; settings: adults, after 72 hours, read-out: mortality in comparison with untreated controls
Method: Four to five-week old rice seedlings with cut upper leaf portion were cleaned and washed 24 hours before spraying. The active compounds were formulated in 1:1 acetone:water (vol:vol), and 0.01% vol/vol surfactant (Kinetic) was added. Potted rice seedlings were sprayed with 5-6 ml test solution, air dried, covered with Mylar cages and inoculated with 10 adults. Treated rice plants were kept at about 28-29° C. and relative humidity of about 50-60%. Percent mortality was recorded after 72 hours.

Spodoptera eridania = experiment: B.11 Southern Armyworm 2nd instar larvae, lima bean foliar spray test; settings: 96 h, 4 days after treatment, read-out: mortality in comparison with untreated controls
Method: The active compounds were formulated by a Tecan liquid handler in 100% cyclohexanone as a 10′000 ppm solution supplied in tubes. The 10′000 ppm solution was serially diluted in 100% cyclohexanone to make interim solutions. These served as stock solutions for which final dilutions were made by the Tecan in 50% acetone:50% water (v/v) into 10 or 20 ml glass vials. A nonionic surfactant (Kinetic®) was included in the solution at a volume of 0.01% (v/v). The vials were then inserted into an automated electrostatic sprayer equipped with an atomizing nozzle for application to plants/insects. Lima bean plants (variety Sieva) were grown 2 plants to a pot and selected for treatment at the 1st true leaf stage. Test solutions were sprayed onto the foliage by an automated electrostatic plant sprayer equipped with an atomizing spray nozzle. The plants were dried in the sprayer fume hood and then removed from the sprayer. Each pot was placed into perforated plastic bags with a zip closure. Ten to 11 armyworm larvae were placed into the bag and the bags zipped closed. Test plants were maintained in a growth room at about 25° C. and about 20-40% relative humidity for 4 days, avoiding direct exposure to fluorescent light (14:10 light:dark photo-period) to prevent trapping of heat inside the bags. Mortality and reduced feeding were assessed 4 days after treatment, compared to untreated control plants.

Tetranychus kanzawai = experiment: B.10 Red Spider Mite, cowpea bean spray test; settings: 72 hours after treatment, read-out: mortality in comparison with untreated controls
Method: The active compound was dissolved at the desired concentration in a mixture of 1:1 (vol:vol) distilled water:acetone. Add surfactant (Kinetic) was added at a rate of 0.01% (vol/vol). The test solution was prepared at the day of use. Potted cowpea beans of 4-5 days of age were cleaned with tap water and sprayed with I-2 ml of the test solution using air driven DeVilbiss® hand atomizer at 20-30 psi (≈1,38 to 2,07 bar). The treated plants were allowed to air dry and afterwards inoculated with 30 or more mites by clipping a cassava leaf section from rearing population. Treated plants were placed inside a holding room at about 25-26° C. and about 65-70% relative humidity. Percent mortality was assessed 72 hours after treatment.

Bemisia argentifolii = experiment: B.12 Silverleaf Whitefly (adults), cotton plant spray test; settings: 72 h, 3 days after treatment, read-out: mortality in comparison with untreated controls
Method: The active compounds were formulated by a Tecan liquid handler in 100% cyclohexanone as a 10,000-ppm solution supplied in tubes. The 10,000-ppm solution was serially diluted in 100% cyclohexanone to make interim solutions. These served as stock solutions for which final dilutions were made by the Tecan in 50% acetone:50% water (v/v) into 5 or 10 ml glass vials. A nonionic surfactant (Kinetic®) was included in the solution at a volume of 0.01% (v/v). The vials were then inserted into an automated electrostatic sprayer equipped with an atomizing nozzle for application to plants/insects. Cotton plants at the cotyledon stage (one plant per pot) were sprayed by an automated electrostatic plant sprayer equipped with an atomizing spray nozzle. The plants were dried in the sprayer fume hood and then removed from the sprayer. Each pot was placed into a plastic cup and about 10 to 12 whitefly adults (approximately 3-5 days old) were introduced. The insects were collected using an aspirator and a nontoxic Tygon® tubing connected to a barrier pipette tip. The tip, containing the collected insects, was then gently inserted into the soil containing the treated plant, allowing insects to crawl out of the tip to reach the foliage for feeding. Cups were covered with a reusable screened lid. Test plants were maintained in a growth room at about 25° C. and about 20-40% relative humidity for 3 days, avoiding direct exposure to fluorescent light (14:10 light:dark photoperiod) to prevent trapping of heat inside the cup. Mortality was assessed 3 days after treatment, compared to untreated control plants.

Nc1c(F)ccc(NC(=O)c2cc(NC3=NOC(c4cc(Cl)cc(Cl)c4)(C(F)(F)F)C3)ccc2Cl)c1F (stereo not drawn) [I-4, N-(3-amino-2,4-difluoro-phenyl)-2-chloro-5-[[5-(3,5-dichlorophenyl)-5-(trifluoromethyl)-4H-isoxazol-3-yl]amino]benzamide]
≥ 75%: mortality at 2500 ppm (Anthonomus grandis) | mortality at 2500 ppm (Myzus persicae) | mortality at 300 ppm (Nezara viridula) | mortality at 300 ppm (Dichromothrips corbetti) | mortality at 300 ppm (Plutella xylostella) | mortality at 2500 ppm (Aedes aegypti) | mortality at 2500 ppm (Heliothis virescens)

N#CC1(NC(=O)c2cc(N(CC3CC3)C3=NOC(c4cc(Cl)cc(Cl)c4)(C(F)(F)F)C3)ccc2Cl)CC1 (stereo not drawn) [I-60, 2-chloro-N-(1-cyanocyclopropyl)-5-[cyclopropylmethyl-[5-(3,5-dichlorophenyl)-5-(trifluoromethyl)-4H-isoxazol-3-yl]amino]benzamide]
≥ 75%: mortality at 300 ppm (Nezara viridula) | mortality at 300 ppm (Nephotettix virescens) | mortality at 300 ppm (Dichromothrips corbetti) | mortality at 300 ppm (Spodoptera eridania) | mortality at 300 ppm (Plutella xylostella)

O=C(NC1C[S+]([O-])C1)c1cc(NC2=NOC(c3cc(Cl)c(F)c(Cl)c3)(C(F)(F)F)C2)ccc1Cl (stereo not drawn) [I-61, 2-chloro-5-[[5-(3,5-dichloro-4-fluoro-phenyl)-5-(trifluoromethyl)-4H-isoxazol-3-yl]amino]-N-(1-oxothietan-3-yl)benzamide]
≥ 75%: mortality at 300 ppm (Dichromothrips corbetti) | mortality at 300 ppm (Spodoptera eridania) | mortality at 300 ppm (Tetranychus kanzawai) | mortality at 300 ppm (Plutella xylostella)

CCOC(=O)N(C1=NOC(c2cc(Cl)cc(Cl)c2)(C(F)(F)F)C1)c1ccc(Cl)c(C(=O)NC2(C#N)CC2)c1 (stereo not drawn) [I-111, ethyl N-[4-chloro-3-[(1-cyanocyclopropyl)carbamoyl]phenyl]-N-[5-(3,5-dichlorophenyl)-5-(trifluoromethyl)-4H-isoxazol-3-yl]carbamate]
≥ 75%: mortality at 300 ppm (Nezara viridula) | mortality at 300 ppm (Bemisia argentifolii) | mortality at 300 ppm (Dichromothrips corbetti) | mortality at 300 ppm (Spodoptera eridania) | mortality at 300 ppm (Tetranychus kanzawai) | mortality at 300 ppm (Plutella xylostella)

CCN1OC[C@@H](NC(=O)c2cc(N(C)C3=NOC(c4cc(Cl)c(F)c(Cl)c4)(C(F)(F)F)C3)ccc2Cl)C1=O (stereo partly drawn) [I-119, 2-chloro-5-[[5-(3,5-dichloro-4-fluoro-phenyl)-5-(trifluoromethyl)-4H-isoxazol-3-yl]-methyl-amino]-N-[(4R)-2-ethyl-3-oxo-isoxazolidin-4-yl]benzamide]
≥ 75%: mortality at 300 ppm (Nezara viridula) | mortality at 300 ppm (Nephotettix virescens) | mortality at 300 ppm (Dichromothrips corbetti) | mortality at 300 ppm (Plutella xylostella)

O=C(Nc1ccc(F)cc1F)c1cc(NC2=NOC(c3cc(Cl)cc(Cl)c3)(C(F)(F)Cl)C2)ccc1Cl (stereo not drawn) [I-131, 2-chloro-5-[[5-[chloro(difluoro)methyl]-5-(3,5-dichlorophenyl)-4H-isoxazol-3-yl]amino]-N-(2,4-difluorophenyl)benzamide]
≥ 75%: mortality at 2500 ppm (Anthonomus grandis) | mortality at 2500 ppm (Myzus persicae) | mortality at 300 ppm (Dichromothrips corbetti) | mortality at 300 ppm (Spodoptera eridania) | mortality at 300 ppm (Plutella xylostella) | mortality at 2500 ppm (Aedes aegypti) | mortality at 2500 ppm (Heliothis virescens)
